Reference: ChEMBL document CHEMBL1126527, “Insight into the catalytic mechanism of KDO8P synthase. Synthesis and evaluation of the isosteric phosphonate mimic of the putative cyclic intermediate” (Bioorg Med Chem Lett, 1993)

Assay: Inhibition of homogeneous KDO 8-P synthase of Escherichia coli was determined from Dixon Plot

For O=C(O)C1(OP(=O)(O)O)CC(O)C(O)C([C@H](O)COP(=O)(O)O)O1 (stereo partly specified), the Ki was 4.9 µM.
